In patent US20250230193A1, “CYCLIC COMPOUND HAVING SELECTIVE KRAS INHIBITORY EFFECT ON HRAS AND NRAS” (CHUGAI SEIYAKU KABUSHIKI KAISHA, priority 2022, published 2025):
Where a SMILES comes first, the peptide text is derived from it. Bridges are numbered along the chain shown (N, C = ends). [ ]: non-standard residue; d: D form. The star is where a group is joined. hPhe(3-Cl-4-CF3) = N[C@@H](CCc1ccc(C(F)(F)F)c(Cl)c1)C(=O)O; NPrPhe(4-Me) = CCCN[C@@H](Cc1ccc(C)cc1)C(=O)O; NMePhe(4-Me) = CN[C@@H](Cc1ccc(C)cc1)C(=O)O; NMeGly(cPent) = CN[C@H](C(=O)O)C1CCCC1; NMeD = CN[C@@H](CC(=O)O)C(=O)O; NMeL = CN[C@@H](CC(C)C)C(=O)O; NMeS = CN[C@@H](CO)C(=O)O; Morpholide = C1CN(*)CCO1; NMeA = CN[C@@H](C)C(=O)O; Ac5c = NC1(C(=O)O)CCCC1; Aze = O=C(O)[C@@H]1CCN1; Sar = CNCC(=O)O

Legend:
[1] = molecular target: GDP-bound HRAS wild-type protein (Homo sapiens, UniProt P01112); experiment: Binding to HRAS by surface plasmon resonance (SPR), Single Cycle Kinetics; details: SPR; for HRAS/KRAS (ratio of KD value with respect to HRAS to KD value with respect to KRAS): GDP-bound HRAS wild-type vs GDP-bound KRAS wild-type
[2] = molecular target: GDP-bound NRAS wild-type protein (Homo sapiens, UniProt P01111); experiment: Binding to NRAS by surface plasmon resonance (SPR), Single Cycle Kinetics; details: SPR; for NRAS/KRAS (ratio of KD value with respect to NRAS to KD value with respect to KRAS): GDP-bound NRAS wild-type vs GDP-bound KRAS wild-type
Chain of GDP-bound NRAS wild-type protein (P01111 whole entry): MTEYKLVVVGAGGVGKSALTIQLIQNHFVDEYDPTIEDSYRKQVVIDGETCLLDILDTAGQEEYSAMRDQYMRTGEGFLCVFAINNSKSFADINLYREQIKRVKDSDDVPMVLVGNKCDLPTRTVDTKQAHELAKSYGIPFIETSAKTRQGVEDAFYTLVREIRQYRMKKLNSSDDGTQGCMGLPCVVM

Chain of GDP-bound HRAS wild-type protein (P01112 whole entry): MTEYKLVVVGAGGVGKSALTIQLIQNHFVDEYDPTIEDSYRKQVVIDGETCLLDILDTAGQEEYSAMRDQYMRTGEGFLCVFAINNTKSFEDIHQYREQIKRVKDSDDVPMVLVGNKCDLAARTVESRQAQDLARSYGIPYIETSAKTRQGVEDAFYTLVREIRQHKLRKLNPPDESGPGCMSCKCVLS

CC[C@H](C)[C@@H]1NC(=O)[C@H](CC)N(C)C(=O)C[C@@H](C(=O)N2CCOCC2)N(C)C(=O)[C@H](C2CCCC2)N(C)C(=O)C2(CCCC2)NC(=O)[C@@H]2CCCN2C(=O)[C@H](CCc2cc(F)c(C(F)(F)F)c(F)c2)NC(=O)CN(C)C(=O)[C@H](Cc2ccc(C(F)(F)F)cc2)N2CCCC[C@@H](C2=O)N(C)C(=O)CN(C)C1=O [PP0550]
HRAS/KRAS (ratio of KD value with respect to GDP-bound HRAS wild-type protein to KD value with respect to KRAS) [1]: B (a compound having 3 or more and less than 10 is denoted as B) | NRAS/KRAS (ratio of KD value with respect to GDP-bound NRAS wild-type protein to KD value with respect to KRAS) [2]: B (a compound having 3 or more and less than 10 is denoted as B)

C#CC[C@H]1C(=O)N[C@@H]([C@@H](C)CC)C(=O)N(C)CC(=O)N(C)[C@H]2C/C=C\CCN(C2=O)[C@@H](Cc2ccc(C(F)(F)F)cc2)C(=O)N(C)CC(=O)N[C@@H](CCc2ccc(C(F)(F)F)c(OC)c2)C(=O)N2C[C@@H](C)C[C@H]2C(=O)NC2(CC(C)(C)C2)C(=O)N(C)[C@@H](C2CCCC2)C(=O)N(C)[C@H](C(=O)N(C)CCC)CC(=O)N1C [PP2057]
HRAS/KRAS (ratio of KD value with respect to HRAS to KD value with respect to KRAS) [1]: A (a compound having 10 or more and less than 20 is denoted as A) | NRAS/KRAS (ratio of KD value with respect to NRAS to KD value with respect to KRAS) [2]: A (a compound having 10 or more and less than 20 is denoted as A)

CC[C@H](C)[C@@H]1NC(=O)[C@H](CC)N(C)C(=O)C[C@@H](C(=O)N(C)C)N(C)C(=O)[C@H](C2CCCC2)N(C)C(=O)C2(CCC2)NC(=O)[C@@H]2C[C@@H](OC)CN2C(=O)[C@H](CCc2cc(F)c(C(F)(F)F)c(F)c2)NC(=O)CN(C)C(=O)[C@H](Cc2ccc(C(F)(F)F)cc2)N2CC/C=C\C[C@@H](C2=O)N(C)C(=O)CN(C)C1=O [PP1130]
HRAS/KRAS (ratio of KD value with respect to HRAS to KD value with respect to KRAS) ([1]; KD ratio): B (a compound having 3 or more and less than 10 is denoted as B) | NRAS/KRAS (ratio of KD value with respect to NRAS to KD value with respect to KRAS) ([2]; KD ratio): A (a compound having 10 or more and less than 20 is denoted as A)

CCOC[C@H]1C(=O)N[C@@H]([C@@H](C)OCC)C(=O)N(C)CC(=O)N(C)[C@H]2C/C=C\CCN(C2=O)[C@@H](Cc2ccc(C)cc2)C(=O)N(C)CC(=O)N[C@@H](CCc2cc(F)c(C(F)(F)F)c(F)c2)C(=O)N2C[C@@H](C)C[C@H]2C(=O)NC2(CC(C)(C)C2)C(=O)N(C)[C@@H](C2CCCC2)C(=O)N(C)[C@H](C(=O)N(C)CC)CC(=O)N1C [PP2422]
HRAS/KRAS (ratio of KD value with respect to HRAS to KD value with respect to KRAS) [1]: A (a compound having 10 or more and less than 20 is denoted as A) | NRAS/KRAS (ratio of KD value with respect to NRAS to KD value with respect to KRAS) [2]: A (a compound having 10 or more and less than 20 is denoted as A)

CCO[C@@H]1C[C@H]2C(=O)NC3(CCC3)C(=O)N(C)[C@@H](C3CCCC3)C(=O)N(CCC3CCCC3)[C@H](C(=O)N3CCOCC3)CC(=O)N(C)[C@@H](CC(C)C)C(=O)N[C@@H]([C@@H](C)CC)C(=O)N(C)CC(=O)N(C)[C@H]3CCCCCN(C3=O)[C@@H](Cc3ccc(C(F)(F)F)cc3)C(=O)N(C)CC(=O)N[C@@H](CCc3cc(F)c(C(F)(F)F)c(F)c3)C(=O)N2C1 [PP0641]
HRAS/KRAS (ratio of KD value with respect to GDP-bound HRAS wild-type protein to KD value with respect to KRAS) [1]: A (a compound having 10 or more and less than 20 is denoted as A) | NRAS/KRAS (ratio of KD value with respect to GDP-bound NRAS wild-type protein to KD value with respect to KRAS) [2]: A (a compound having 10 or more and less than 20 is denoted as A)

CCCN1C(=O)[C@@H]2CCN2C(=O)[C@H](C)N(C)C(=O)[C@H]([C@@H](C)CC)NC(=O)[C@H](CC(C)C)N(C)C(=O)C[C@@H](C(=O)N2CCOCC2)N(C)C(=O)[C@H](C2CCCC2)N(C)C(=O)C2(CCCC2)NC(=O)[C@@H]2CCCN2C(=O)[C@H](CCc2ccc(C(F)(F)F)c(Cl)c2)NC(=O)CN(C)C(=O)[C@@H]1Cc1ccc(C)cc1 [PP0052] ([NMeL]I[NMeA][Aze][NPrPhe(4-Me)][Sar][hPhe(3-Cl-4-CF3)]P[Ac5c][NMeGly(cPent)][NMeD]-Morpholide; lactam N-11)
HRAS/KRAS (ratio of KD for GDP-bound HRAS wild-type to KD for KRAS) [1]: B (a compound having 3 or more and less than 10 is denoted as B) | NRAS/KRAS (ratio of KD for GDP-bound NRAS wild-type to KD for KRAS) [2]: C (A compound having a KD ratio of 0.1 or more and less than 3 is denoted as C)

CC[C@H](C)[C@@H]1NC(=O)[C@H](CC(C)C)N(C)C(=O)C[C@@H](C(=O)N2CCOCC2)N(C)C(=O)[C@H](C2CCCC2)N(C)C(=O)C2(CCCC2)NC(=O)[C@@H]2CCCN2C(=O)[C@H](CCc2ccc(C(F)(F)F)c(Cl)c2)NC(=O)CN(C)C(=O)[C@H](Cc2ccc(C)cc2)N(C)C(=O)[C@H](CO)N(C)C(=O)CN(C)C1=O [PP0037] ([NMeL]I[Sar][NMeS][NMePhe(4-Me)][Sar][hPhe(3-Cl-4-CF3)]P[Ac5c][NMeGly(cPent)][NMeD]-Morpholide; lactam N-11)
HRAS/KRAS (ratio of KD for GDP-bound HRAS wild-type to KD for KRAS) [1]: C (A compound having a KD ratio of 0.1 or more and less than 3 is denoted as C) | NRAS/KRAS (ratio of KD for GDP-bound NRAS wild-type to KD for KRAS) [2]: C (A compound having a KD ratio of 0.1 or more and less than 3 is denoted as C)
